Reference: patent publication US12022844B2, “Nutritional composition, food/drink composition using nutritional composition, and modified milk powder using nutritional composition” (priority 2018, dated 2024)

How the values were obtained:
[1] = system: Bifidobacterium bifidum NITE BP-02429; experiment: Single bacterial culturing with HMO as sugar source, OD650; assay type: cell-based; conditions: 8 h
Protocol: (§1) A10% solution of glucose (manufactured by Nakarai Tesque Inc.), and 2′-FL ((≥95%) Funakoshi, available from sigma), and LNnT (manufactured by ELICITYL) as examples of HMOs was prepared with ion exchanged water, and was subjected to sterile filtration using Millex-GV (SLGV033RS).
(§2) Lactobacilli MRS Broth (BD) (0.05% L-Cysteine Hydrochloride for Bacteria of the genus Bifidobacterium) was added to strains of Table 1 below (bacteria belonging to Bifidobacterium bifidum) and Table 2 below. After a sterilization treatment, 3% of the bacterial solution was inoculated, and anaerobically cultured (pre-pre cultured) at 37° C. for 16 h.
(§3) The following day, 1% glucose was added to a modified BL agar medium (“Studies on Bifidobacteria” by Tomotari Mitsuoka, p. 306, Japan Bifidus Foundation, issued in 1994) noted in Table 3, for preparation. After a sterilization treatment, 3% of the pre-pre cultured bacterial solution was inoculated, and anaerobically pre-cultured (pre-cultured) at 37° C. for 12 h.
(§4) The pre-cultured bacterial solution was collected and washed once with a sterile physiological saline solution. Then, mass-up was performed to an equal volume with the modified BL agar medium (“Studies on Bifidobacteria” by Tomotari Mitsuoka, p. 306, Japan Bifidus Foundation, issued in 1994) noted in Table 3 to prepare a suspended bacterial solution.
The modified BL agar medium (“Studies on Bifidobacteria” by Tomotari Mitsuoka, p. 306, Japan Bifidus Foundation, issued in 1994) noted in Table 3 was prepared at a capacity of 60%, and was subjected to an autoclave sterilization treatment. Then, 40% of each sugar solution prepared in (1) was aseptically added so as to prepare a medium with a sugar concentration of 4%. […]
(§5) OD650 was measured from each well in the plates in the above (4) and the above (5) before (0 h) culturing and after (8 h) culturing, by MICROPLATE READER SH-9000 (manufactured by CORONA ELECTRIC). […] After the DNA extraction, the number of proliferating bacteria of Bifidobacteria/lactobacilli was analyzed by using the bacterial species-specific primer noted in Table 4, by a quantitative PCR method (see “Structural analysis of intestinal flora”—analysis of bacterial flora in human feces using quantitative PCR—by Kouichi Watanabe, Enterobacteriological journal, 20:35-42, 2006).
Regarding bacteria belonging to Bifidobacterium bifidum in Table 1, each strain was cultured as a single bacterium by 2′-FL or LNnT (HMOs) as a sugar source, and OD650 was measured. […]
(§6) Regarding strains in Table 2, each strain was cultured as a single bacterium by 2′-FL or LNnT (HMOs) as a sugar source, and OD650 was measured. […]

[2] = system: Lactobacillus gasseri ATCC 33323; experiment: Mix-culturing with Bifidobacterium bifidum by HMO as sugar source, quantitative PCR; assay type: cell-based; conditions: for Proliferation rate (number of bacteria after mix-culturing for 8 h/number of bacteria after single bacterial culturing): ATCC 33323^T mix-cultured with Bifidobacterium bifidum (NITE BP-02429), sugar source 2%, Table 8; for proliferation rate of Lactobacillus gasseri ATCC 33323^T (mix-cultured bacteria after 8 h/single bacterial culturing 8 h): Table 11
Protocol: as §1, §2, §3, §4
(§7) The modified BL agar medium (“Studies on Bifidobacteria” by Tomotari Mitsuoka, p. 306, Japan Bifidus Foundation, issued in 1994) noted in Table 3 was prepared at a capacity of 60%, and was subjected to an autoclave sterilization treatment. Then, 40% of each sugar solution prepared in (1) was aseptically added so as to prepare a medium with a sugar concentration of 4%.
The medium prepared in the above (3) was dispensed at a capacity that is half the capacity for aseptic culturing in a 96-well plate, and each of the bacterial solutions of strains of bacteria belonging to Bifidobacterium bifidum in Table 1 and probiotics having a low ability to assimilate human milk oligosaccharides in Table 2, which was prepared in the above (2), was dispensed at a remaining […] capacity into the medium prepared in the above (3) such that the bacterial solution had 12%. Then, a final sugar concentration was set to 2%. The plate into which the bacterial solution was dispensed was anaerobically cultured at 37° C. for 8 h.
(§8) OD650 was measured from each well in the plates in the above (4) and the above (5) before (0 h) culturing and after (8 h) culturing, by MICROPLATE READER SH-9000 (manufactured by CORONA ELECTRIC). After turbidity measurement, microbial cells were collected, and DNA extraction was performed. After the DNA extraction, the number of proliferating bacteria of Bifidobacteria/lactobacilli was analyzed by using the bacterial species-specific primer noted in Table 4, by a quantitative PCR method (see “Structural analysis of intestinal flora”—analysis of bacterial flora in human feces using quantitative PCR—by Kouichi Watanabe, Enterobacteriological journal, 20:35-42, 2006).
It was decided to culture Bifidobacterium bifidum (NITE BP-02429) in which availability of 2′-FL or LNnT was found as described above, in combination with strains in Table 2, which cannot use 2′-FL or LNnT. Bifidobacterium bifidum (NITE BP-02429) and the strains in Table 2, which cannot use 2′-FL or LNnT, were mix-cultured by 2′-FL or LNnT as a sugar source, and after culturing for 8 h, the proliferation rate of the number of bacteria of each strain (proliferation rate=the number of bacteria after mix-culturing for 8 h/the number of bacteria after single bacterial culturing) was measured by a quantitative PCR method using each strain-specific oligonucleotide primer noted in Table 4, for the strain in Table 2.
Seven strains of Bifidobacterium bifidum in Table 1 and Lactobacillus gasseri ATCC 33323^T which cannot use 2′-FL were mix-cultured by 2′-FL as a sugar source. […]

[3] = system: Lactobacillus acidophhilus ATCC4356; experiment: as above; assay type: cell-based, Lactobacillus acidophilus; conditions: ATCC 4356^T mix-cultured with Bifidobacterium bifidum (NITE BP-02429), sugar source 2%, Table 8
Protocol: as §1
as §2, with “h. […]” for “h.”
OD650 was measured from each well in the plates in the above (4) and the above (5) before (0 h) culturing and after (8 h) culturing, by MICROPLATE READER SH-9000 (manufactured by CORONA ELECTRIC). […] After the DNA extraction, the number of proliferating bacteria of Bifidobacteria/lactobacilli was analyzed by using the bacterial species-specific primer noted in Table 4, by a quantitative PCR method (see “Structural analysis of intestinal flora”—analysis of bacterial flora in human feces using quantitative PCR—by Kouichi Watanabe, Enterobacteriological journal, 20:35-42, 2006). […]

[4] = system: Lactobacillus acidophhilus ATCC4356; experiment: Single bacterial culturing with HMO as sugar source, OD650; assay type: cell-based, Lactobacillus acidophilus; conditions: ATCC 4356^T, sugar source 2%, 8 h, Table 6
Protocol: as §1
as §2, with “h. […]” for “h.”
as §5, §6

[5] = system: Lactobacillus gasseri ATCC33323; experiment: as above; assay type: cell-based; conditions: ATCC 33323^T, sugar source 2%, 8 h, Table 6
Protocol: as §1, §2, §3, §4, §7
(§9) The medium prepared in the above (3) was dispensed at a capacity that is half the capacity for culturing in a 96-well plate, and the bacterial solution prepared in the above (2) was dispensed at a remaining half capacity such that the bacterial solution had 6%. Then, a final sugar concentration was set to 2%. The plate into which the bacterial solution was dispensed was anaerobically cultured at 37° C. for 8 h.
as §8
(§10) Regarding strains in Table 2, each strain was cultured as a single bacterium by 2′-FL or LNnT (HMOs) as a sugar source, and OD650 was measured. The results for 2′-FL are noted in Table 6 below, and the results for LNnT are noted in Table 7 below.

[6] = system: Lactobacillus rhamnosus ATCC7469; experiment: as above; assay type: cell-based; conditions: ATCC 7469^T, sugar source 2%, 8 h, Table 6
Protocol: as §1, §2, §3, §4, §7, §9, §8, §10

[7] = system: Bifidobacterium animalis subsp lactis DSM10140; experiment: as above; assay type: cell-based; conditions: DSM 101407, sugar source 2%, 8 h, Table 6
Protocol: as §1, §2, §3, §4, §7, §9, §8, §10

[8] = system: Lactobacillus plantarum ATCC14917; experiment: as above; assay type: cell-based; conditions: ATCC 14917^T, sugar source 2%, 8 h, Table 6
Protocol: as §1, §2, §3, §4, §7, §9, §8, §10

[9] = system: Bifidobacterium adolescentis ATCC15703; experiment: as above; assay type: cell-based; conditions: ATCC 15703^T, sugar source 2%, 8 h, Table 6
Protocol: as §1, §2, §3, §4, §7, §9, §8, §10

[10] = system: Bifidobacterium pseudolongum ATCC25526; experiment: as above; assay type: cell-based; conditions: ATCC 25526^T, sugar source 2%, 8 h, Table 6
Protocol: as §1, §2, §3, §4, §7, §9, §8, §10

[11] = system: Bifidobacterium animalis subsp lactis MCC-525; experiment: as above; assay type: cell-based; conditions: sugar source 2%, 8 h, Table 7
Protocol: as §1, §2, §3, §4, §7, §9, §8, §10

[12] = NITE BP-02429, sugar source 2%, anaerobic 37° C., Table 5

2′-fucosyllactose [2′-FL]
OD650 increase value ([1]; NITE BP-02429(PC), sugar source 2%, Table 6): 0.135
OD650 increase value [1, 12]: 0.167
Proliferation rate (number of bacteria after mix-culturing for 8 h/number of bacteria after single bacterial culturing) [2]: 3.70
proliferation rate of Lactobacillus gasseri ATCC 33323^T (mix-cultured bacteria after 8 h/single bacterial culturing 8 h) ([2]; mix-cultured with Bifidobacterium bifidum ATCC 29521^T): 1.45
proliferation rate of Lactobacillus gasseri ATCC 33323^T (mix-cultured bacteria after 8 h/single bacterial culturing 8 h) ([2]; mix-cultured with Bifidobacterium bifidum NITE BP-1252): 3.99
proliferation rate of Lactobacillus gasseri ATCC 33323^T (mix-cultured bacteria after 8 h/single bacterial culturing 8 h) ([2]; mix-cultured with Bifidobacterium bifidum NITE BP-02429): 2.33
proliferation rate of Lactobacillus gasseri ATCC 33323^T (mix-cultured bacteria after 8 h/single bacterial culturing 8 h) ([2]; mix-cultured with Bifidobacterium bifidum NITE BP-02431): 4.42
proliferation rate of Lactobacillus gasseri ATCC 33323^T (mix-cultured bacteria after 8 h/single bacterial culturing 8 h) ([2]; mix-cultured with Bifidobacterium bifidum NITE BP-02432): 3.99
proliferation rate of Lactobacillus gasseri ATCC 33323^T (mix-cultured bacteria after 8 h/single bacterial culturing 8 h) ([2]; mix-cultured with Bifidobacterium bifidum NITE BP-02433): 3.64
proliferation rate of Lactobacillus gasseri ATCC 33323^T (mix-cultured bacteria after 8 h/single bacterial culturing 8 h) ([2]; mix-cultured with Bifidobacterium bifidum NITE P-02648): 2.88
number of proliferating bacteria of Lactobacillus gasseri ATCC33323T in combination with seven strains of Bifidobacterium bifidum compared to single bacterium culture ([2]; summary of Table 11): promoted
Proliferation rate (number of bacteria after mix-culturing for 8 h/number of bacteria after single bacterial culturing) [3]: 3.54
OD650 increase value [4]: 0.01
OD650 increase value [5]: −0.017
OD650 increase value [6]: 0.058
OD650 increase value [7]: 0.027
OD650 increase value [8]: 0.013
OD650 increase value [9]: −0.01
OD650 increase value [10]: 0.022

CC(=O)N[C@H]1[C@H](O[C@H]2[C@@H](O)[C@@H](CO)O[C@@H](O[C@H]3[C@H](O)[C@@H](O)C(O)O[C@@H]3CO)[C@@H]2O)O[C@H](CO)[C@@H](O[C@@H]2O[C@H](CO)[C@H](O)[C@H](O)[C@H]2O)[C@@H]1O (mixture of isomers) [LNnT, lacto-N-neotetraose]
OD650 increase value ([1]; NITE BP-02429 (PC: positive control), sugar source 2%, Table 7): 0.608
OD650 increase value [1, 12]: 0.608
Proliferation rate (number of bacteria after mix-culturing for 8 h/number of bacteria after single bacterial culturing) [2]: 1.53
Proliferation rate (number of bacteria after mix-culturing for 8 h/number of bacteria after single bacterial culturing) [3]: 3.77
OD650 increase value [11]: 0.096
